From a melting point compilation (Tetko et al.; mined from patent text by program, amines drawn as free bases though some values may be those of a salt)

SMILES | melting point
CC(=O)c1cccc(-c2nc3sccn3c2-c2ccnc(N[C@@H]3CCCN(S(=O)(=O)c4ccc(Cl)cc4)C3)n2)c1 | 124 to 127 °C
FC(F)Oc1ccc(C2=NNCC2n2cc(Cl)cn2)cc1 (stereo not drawn) | 93 °C
CCC(CC)C1CC1(CN)C(=O)O (stereo not drawn) | 255 to 257 °C
Brc1ccc2scc(Br)c2c1 | 95 to 97 °C
COc1cccc(C2CCC(=O)N2)c1 (stereo not drawn) | 84 to 85 °C
O=C(O)c1ccc(-c2ccc3c(c2)CCN(CCN2CCCC2)C3=O)cc1 | 247 to 249 °C
CC(C(N)=O)N1CCN(c2ccccn2)CC1 (stereo not drawn) | 130 to 132 °C
Cc1cc(C(=O)O)ccc1C1=CCCCC1 | 173 to 175 °C
COc1c(-c2cc3c(s2)CCC(C)(C)C3N=[N+]=[N-])ccc2c(=O)c(C(=O)O)cn(C3CC3)c12 (stereo not drawn) | 89 to 90 °C
COC(=O)c1cc2cc(NC(=O)c3cc4cc(N)ccc4[nH]3)ccc2[nH]1 | > 350 °C
CCCn1c(=O)sc2cc(F)c(NC(=O)C=C(CC)NC(=O)OCC)cc21 | 174 to 175 °C
CCCc1nc2c(N)nc3cc(-c4cncc(CO)c4)ccc3c2n1CC(C)(C)O | 225 to 226 °C
COc1cc(Cc2cnc(NCCSCc3nc[nH]c3C)[nH]c2=O)ccn1 | 177 to 178 °C
O=[N+]([O-])c1ccc(C(O)c2ccccn2)cc1 (stereo not drawn) | 114 to 115 °C
CC(C)c1nccc2c(CNC(=O)C(Cl)Cl)cccc12 | 151 °C
COc1ccccc1OC1CCN(CCCNC(=O)c2cccc3c(=O)c(C)c(-c4ccccc4)oc23)CC1 | 154 to 156 °C
CC(=O)N(C(C)=O)c1nsc2ccccc12 | 65 to 67 °C
CC(C)CCSc1cc(C(=O)O)cc(N)c1-c1ccccc1 | 124 to 126 °C
Fc1ccc2[nH]nc(-c3ccccc3)c2c1 | 124 to 125 °C
COCCC1CCN(c2ccc(C#N)c3sccc23)C1 (stereo not drawn) | 88 to 89 °C
COc1ccc(-c2c(C)cc3c(O)cc(C)nn23)c(C)c1 | 234 to 237 °C
CCCCCCC1C(=O)NC2(C(O)C3C=CCCC3)C(=O)OC12C (stereo not drawn) | 157 °C
COc1ccccc1N(CCN1CCC(C(=O)c2ccc(F)cc2)CC1)C(=O)c1ccc([N+](=O)[O-])cc1 | 166 to 168 °C
COc1ccc(C(=O)C2CCN(CCCO)CC2)cc1 | 102 to 105 °C
Nc1c(Cl)cc(C(=O)OC2CCN(CCCC(=O)c3ccc4[nH]c(=O)[nH]c4c3)CC2)c2c1CCO2 | 273 °C

SMILES | melting point
CCOC(=O)CC(=O)c1cc(C#N)ccc1F | 55 to 60 °C
COc1cccn(C2c3cc(S(=O)(=O)C(F)(F)F)ccc3OC(C)(C)C2O)c1=O (stereo not drawn) | 223 to 225 °C
COc1ccc(S(=O)(=O)N2C(=O)C(OC(=O)Oc3ccccc3)(c3ccccc3Cl)c3cc(Cl)c(OC)cc32)c(OC)c1 (stereo not drawn) | 162 to 163 °C
CC(C)(C(=O)O)C(=O)O | 121 to 123 °C
Fc1ccc(Cn2c(NC3CCN(CCOc4nccs4)CC3)nc3ccccc32)cc1 | 156 °C
CCCCOc1ncc(C(C)=O)cc1-c1nc2c(CC)n(C3CN(C(=O)OC(C)(C)C)C3)nc2c(=O)[nH]1 | 176 to 178 °C
COC(=O)c1cc2c(nc1C(=O)OC)N(C)CC2 | 132 to 133 °C
COc1ccc2ncc3ncn(-c4ccccc4Cl)c3c2c1 | 202 to 205 °C
CC(C)c1ccc(-c2ncc(-c3cccc(C(=O)O)c3)o2)cc1 | 193 to 195 °C
O=C(O)c1ccc(NCC2CCCCCCC2)cc1 | 160 to 162 °C
CCCCOc1ccc(CC(CC(=O)NO)S(=O)(=O)c2ccc(OC)cc2)cc1 (stereo not drawn) | 55 to 60 °C
Nn1c(-c2ccccc2)nc2cc(C(F)(F)F)ccc21 | 200 to 203 °C
O=C1c2ccccc2C(=O)c2sc(-c3ccccn3)nc21 | > 260 °C
CCOC(=O)c1c(C(C)(C)O)nc(CC)n1Cc1ccc(-c2ccccc2-c2nnnn2C(c2ccccc2)(c2ccccc2)c2ccccc2)cc1 | 150 to 152 °C
COc1cc(C)c(S(=O)(=O)c2ccccc2)cc1OC | 162 to 163 °C
CCC1OC(=O)N(CCc2ccc(NC(=O)c3cccs3)cc2)N=C1c1ccc(OC)c(OC)c1 (stereo not drawn) | 197 °C
O=c1ccc2c(C(F)(F)F)cc(C(F)(F)F)nc2[nH]1 | 182 to 184 °C
CCOC(=O)C1=NNC(C)=C(C(=O)OC)C1c1cccc([N+](=O)[O-])c1 (stereo not drawn) | 174 °C
ClCc1ccc(CCl)o1 | 27 to 28 °C
CC(=O)c1cc(Cl)c2c(c1Cl)C(C)(C)CCS2(=O)=O | 154 to 155 °C
O=[N+]([O-])c1ccc(O)c(C(=NO)c2ccccc2)c1 | 193 to 196 °C
Cc1ccc([C@@H](C)NCc2ccc(O)cc2)cc1 | 114 to 116 °C
Cn1nc(Oc2ccc([N+](=O)[O-])c([N+](=O)[O-])c2)c(Br)c1C(F)(F)F | 152 to 153 °C
Oc1c(Cl)cc(Cl)c2cc(Cl)cnc12 | 144 to 147 °C
CC(=O)N1CC(C)c2c1cc(C)c(O)c2C (stereo not drawn) | 204 to 205 °C

SMILES | melting point
COc1ccc(C=O)nc1I | 118 to 121 °C
Oc1c(C(=S)NCc2ccc(Cl)cc2)cnc2ccc(I)cc12 | 275 to 276 °C
CC(C)(C)c1cc2c(=O)[nH]cnc2o1 | 198 to 200 °C
COc1ccc2ccccc2c1C(Nc1ccccc1C)C(N)=O (stereo not drawn) | 195 °C
CCCCC(O)CN1N=CCCC1c1ccc(Cl)c(Cl)c1 (stereo not drawn) | 80 to 81 °C
O=C(CCl)c1ccc2c(c1)[nH]c1ccccc12 | 203 to 204 °C
C#CCSc1nnc(-c2cccs2)s1 | 71 to 73 °C
CNc1c(F)cc2c(=O)c(C(=O)O)cn(-c3ccc(F)c(N)n3)c2c1Cl | 233 to 238 °C
C#Cc1cc2ncc(C#N)c(Nc3cc(OC)c(Cl)cc3Cl)c2s1 | 198 to 200 °C
COc1cc2c(c3c1OC(C)(C)C3)C(c1cccc(NC(=O)Cc3ccncc3)c1)=NC(C)(C)C2 | 124 to 128 °C
CC(=O)C(=Cc1cc([N+](=O)[O-])c(O)c([N+](=O)[O-])c1)C(C)=O | 158 °C
NC(=O)c1ccc(OCCCCl)cc1 | 142 to 143 °C
COc1cc(OC)nc(Sc2sccc2NS(=O)(=O)C(F)(F)F)n1 | 103 to 104 °C
COc1ccc(N2C(=O)N(c3cccc(C(N)=O)c3)c3nc(Nc4cccc(CCN(C)C)c4)ncc3C2C)cc1 (stereo not drawn) | 215 to 230 °C
CC(=O)OC1CCC2(C)C(CCC3C4CC5OC6(CC(C)C(C)(C)O6)C(C)(O)C5C4(C)CC(OC(C)=O)C32)C1 (stereo not drawn) | 253 to 256 °C
CC1(N)CN(C(=O)Nc2ccc(C(F)(F)F)cc2)N=C1c1ccc(Cl)cc1 (stereo not drawn) | 165 to 167 °C
C#CCOc1ccc2c(c1)nc(N)c1nc(COCC)n(CC(C)(C)NS(C)(=O)=O)c12 | 175 to 176 °C
Cc1noc2cc3c(cc12)C1(CO3)C(=O)N(Cc2ccc(-c3ccno3)cc2)c2ccccc21 (stereo not drawn) | 192 to 194 °C
Cc1noc(NC(=O)C(c2ccccc2)c2ccccc2)n1 | 215 °C
CCCN1CCCCC1C(=O)Nc1c(C)cccc1C (stereo not drawn) | 142 to 145 °C
COc1cc(CN2C(=O)c3ccsc3CC2C(=O)O)cc(OC)c1OC (stereo not drawn) | 208 °C
COC(=O)[C@H](Cc1cc(F)cc(F)c1)NC(=O)OC(C)(C)C | 81 °C
COc1ccc(C2=NN(c3cnc4ccccc4n3)C(=O)[C@H]3CC=CC[C@@H]23)cc1Cl (relative stereo) | 172 to 174 °C
